Assay results from the Kinase Knowledgebase extract (Sharma et al. 2016).
pIC50: −log10 of the molar value. Several values for one entry are separate records, joined by “and”; a condition that tells them apart may be missing. Equal values may be shown once.

target: CDK2 (UniProt P24941); assay: Enzyme Assay

SMILES | pIC50
CC(C)(O)[C@@H]1CCCN1c1cc(NCc2ccc[n+]([O-])c2)n2ncc(Br)c2n1 | 7.00 to 10.00
[O-][n+]1cccc(CNc2cc(C3CCNCC3)nc3c(Br)cnn23)c1 | 7.00 to 10.00
Brc1cnn2c(NCc3ccc4[nH]cnc4c3)cc(C3CCCCC3)nc12 | 7.00 to 10.00
[O-][n+]1cccc(CNc2cc(-c3cccs3)nc3c(Br)cnn23)c1 | 7.00 to 10.00
Nc1ncc(CNc2cc(C3CCCNC3)nc3c(Br)cnn23)cn1 (centres undefined) | 7.00 to 10.00
CC(C)c1cc(NCc2ccc[n+]([O-])c2)n2ncc(Br)c2n1 | 7.00 to 10.00
[O-][n+]1cccc(CNc2cc(-c3ccccc3)nc3c(Br)cnn23)c1 | 7.00 to 10.00
[O-][n+]1cc(CNc2cc(-c3ccccc3)nc3c(Br)cnn23)ccc1OCC(F)(F)F | 7.00 to 10.00
CC(C)[C@@H](CO)Nc1cc(NCc2ccc[n+]([O-])c2)n2ncc(Br)c2n1 | 7.00 to 10.00
CS(=O)(=O)N1CCC(c2cc(NCc3cccnc3)n3ncc(Br)c3n2)CC1 | 7.00 to 10.00
Brc1cnn2c(NCc3cccnc3)cc(C3CCNCC3)nc12 | 7.00 to 10.00
OCCC1CCCCN1c1cc(NCc2cccnc2)n2ncc(Br)c2n1 (centres undefined) | 7.00 to 10.00
[O-][n+]1cccc(CNc2cc(-c3ccc(Cl)cc3)nc3c(Br)cnn23)c1 | 7.00 to 10.00
CC(C)Oc1ccc(CNc2cc(-c3ccccc3F)nc3c(Br)cnn23)c[n+]1[O-] | 7.00 to 10.00
CC(=O)N1CCCC(c2cc(NCc3cccnc3)n3ncc(Br)c3n2)C1 (centres undefined) | 7.00 to 10.00
O=C(C1CC1)N1CCC(c2cc(NCc3cccnc3)n3ncc(Br)c3n2)CC1 | 7.00 to 10.00
CC1(C)[C@@H]2[C@@H](CO)N(c3cc(NCc4cccnc4)n4ncc(Br)c4n3)C[C@@H]21 | 7.00 to 10.00
CC(C)(O)[C@H]1CCCC[C@H]1c1cc(NCc2cccnc2)n2ncc(Br)c2n1 | 7.00 to 10.00
OCC1CCCCN1c1cc(NCc2cccnc2)n2ncc(Br)c2n1 (centres undefined) | 7.00 to 10.00
CN1CCN(c2cc(NCc3cccnc3)n3ncc(Br)c3n2)CC1 | 6.85
Brc1cnn2c(NCc3cccnc3)cc(C3CCOCC3)nc12 | 7.00 to 10.00
CCOc1ccc(CNc2cc(-c3ccccc3)nc3c(Br)cnn23)c[n+]1[O-] | 7.00 to 10.00

SMILES | pIC50
CCc1cnn2c(NCc3ccnc(O)c3)cc(-c3ccccc3)nc12 | 7.00 to 10.00
Fc1ccccc1-c1cc(NCc2ccc3[nH]cnc3c2)n2ncc(Br)c2n1 | 7.00 to 10.00
Cc1ccccc1-c1cc(NCc2ccc[n+]([O-])c2)n2ncc(Br)c2n1 | 7.00 to 10.00
CNC(=O)c1ccc(CNc2cc(-c3ccccc3F)nc3c(Br)cnn23)cc1 | 7.00 to 10.00
[O-][n+]1cccc(CNc2cc(-c3ccccc3Cl)nc3c(Br)cnn23)c1 | 7.00 to 10.00
NC(=O)N1CCCC(c2cc(NCc3cccnc3)n3ncc(Br)c3n2)C1 (centres undefined) | 7.00 to 10.00
COc1c(Cl)cc(CNc2cc(-c3ccccc3)nc3c(Br)cnn23)c[n+]1[O-] | 7.00 to 10.00
[O-][n+]1cccc(CNc2cc(-c3ccco3)nc3c(Br)cnn23)c1 | 7.00 to 10.00
Brc1cnn2c(NCc3cccnc3)cc(C3CCCCC3)nc12 | 7.00 to 10.00
CCc1cnn2c(NCc3ccc(OC)[n+]([O-])c3)cc(-c3ccccc3F)nc12 | 7.00 to 10.00
OC[C@H]1CCCC[C@H]1Nc1cc(NCc2cccnc2)n2ncc(Br)c2n1 | 7.00 to 10.00
CCc1cnn2c(NCc3cccnc3)cc(-c3ccccc3)nc12 | 7.00 to 10.00
CC(=O)N1CCC(c2cc(NCc3cccnc3)n3ncc(Br)c3n2)CC1 | 7.00 to 10.00
Brc1cnn2c(NCc3cccnc3)cc(-c3ccccc3)nc12 | 7.00 to 10.00
Brc1cnn2c(NCc3ccc(-c4csnn4)cc3)cc(C3CCNCC3)nc12 | 7.00 to 10.00
N[C@H]1CC[C@H](Nc2cc(NCc3cccnc3)n3ncc(Br)c3n2)CC1 | 7.00 to 10.00
CCc1cnn2c(NCc3ccc[n+]([O-])c3)cc(C3CCCCC3)nc12 | 7.00 to 10.00
Brc1cnn2c(NCc3cccnc3)cc(-c3ccco3)nc12 | 7.00 to 10.00
OCC1(Nc2cc(NCc3cccnc3)n3ncc(Br)c3n2)CCCC1 | 7.00 to 10.00
CC(C)[C@H](CO)Nc1cc(NCc2ccc[n+]([O-])c2)n2ncc(Br)c2n1 | 7.00 to 10.00
CC(C)(O)[C@@H]1CCCN1c1cc(NCc2cccnc2)n2ncc(Br)c2n1 | 7.00 to 10.00
NC(=O)N1CCC(c2cc(NCc3cccnc3)n3ncc(Br)c3n2)CC1 | 7.00 to 10.00

SMILES | pIC50
CCc1cnn2c(NCc3ccc[n+]([O-])c3)cc(-c3ccccc3F)nc12 | 7.00 to 10.00
[O-][n+]1cccc(CNc2cc(-c3ccccc3F)nc3c(Br)cnn23)c1 | 7.00 to 10.00
OC[C@H]1CCCC[C@H]1c1cc(NCc2cccnc2)n2ncc(Br)c2n1 | 7.00 to 10.00
CC(C)(CO)Nc1cc(NCc2cccnc2)n2ncc(Br)c2n1 | 7.00 to 10.00
Fc1ccccc1-c1cc(NCc2ccncc2)n2ncc(Br)c2n1 | 7.49 and 7.62
[O-][n+]1cccc(CNc2cc(N3CCC[C@H]3CO)nc3c(Br)cnn23)c1 | 7.00 to 10.00
OCC[C@@H]1CCCN1c1cc(NCc2cccnc2)n2ncc(Br)c2n1 | 7.00 to 10.00
Cn1cnc2cc(CNc3cc(-c4ccccc4)nc4c(Br)cnn34)ccc21 | 7.00 to 10.00
O=c1cc(CNc2cc(-c3ccccc3)nc3c(Br)cnn23)cc[nH]1 | 7.00 to 10.00
O=c1ccc(CNc2cc(-c3ccccc3)nc3c(Br)cnn23)c[nH]1 | 7.00 to 10.00
Oc1cc(CNc2cc(C3CCCCC3)nc3c(Br)cnn23)ccn1 | 7.00 to 10.00
Brc1cnn2c(NCc3cccnc3)cc(C3CCCNC3)nc12 (centres undefined) | 7.00 to 10.00
CCc1cnn2c(NCc3ccc[n+]([O-])c3)cc(-c3ccccc3)nc12 | 7.00 to 10.00
Brc1cnn2c(NCc3ccc4[nH]cnc4c3)cc(C3CCNCC3)nc12 | 7.00 to 10.00
CS(=O)(=O)N1CCCC(c2cc(NCc3cccnc3)n3ncc(Br)c3n2)C1 (centres undefined) | 7.00 to 10.00
[O-][n+]1cccc(CNc2cc(C3CCOCC3)nc3c(Br)cnn23)c1 | 7.00 to 10.00
O=c1ccc(CNc2cc(-c3ccccc3F)nc3c(Br)cnn23)c[nH]1 | 7.00 to 10.00
COc1ccc(CNc2cc(-c3ccccc3F)nc3c(Br)cnn23)c[n+]1[O-] | 7.00 to 10.00
O=c1ccc(CNc2cc(C3CCCCC3)nc3c(Br)cnn23)c[nH]1 | 7.00 to 10.00
[O-][n+]1cccc(CNc2cc(C3CCCCC3)nc3c(Br)cnn23)c1 | 7.00 to 10.00
